# In patent US5071858A, “Antipsychotic benzothiopyranylamines” (Ciba-Geigy Corporation, priority 1990, dated 1991):
# What was measured:
# [1] = target: T1, serotonin-2 receptor (5HT-2 receptor) (Rattus norvegicus, UniProt P14842); experiment: serotonin-2 receptor binding assay (3H-ketanserin displacement); details: frontal/parietal cortex membranes of male Sprague-Dawley rats
# T1 construct: membrane preparations of frontal/parietal cortex from male Sprague-Dawley rats; from tissue; host or cells: frontal/parietal cortex membranes of male Sprague-Dawley rats
# T1 sequence (P14842 whole entry): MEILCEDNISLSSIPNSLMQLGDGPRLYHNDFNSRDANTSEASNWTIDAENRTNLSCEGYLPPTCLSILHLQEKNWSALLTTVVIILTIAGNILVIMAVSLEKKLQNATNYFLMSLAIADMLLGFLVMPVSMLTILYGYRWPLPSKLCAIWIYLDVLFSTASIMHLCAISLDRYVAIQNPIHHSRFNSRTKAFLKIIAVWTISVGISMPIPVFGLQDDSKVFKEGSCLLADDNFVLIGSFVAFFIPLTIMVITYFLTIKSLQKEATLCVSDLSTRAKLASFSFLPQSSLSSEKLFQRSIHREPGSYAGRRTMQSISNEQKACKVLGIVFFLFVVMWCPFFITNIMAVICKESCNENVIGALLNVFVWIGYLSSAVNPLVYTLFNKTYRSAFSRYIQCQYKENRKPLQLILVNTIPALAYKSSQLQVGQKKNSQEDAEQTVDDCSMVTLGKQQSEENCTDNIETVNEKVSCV
# Experimental: The compounds described above are active e.g. in the following test system indicative of serotonin-2 receptor antagonism: The serotonin-2 receptor (also named 5-hydroxytryptamine-2 or 5HT-2 receptor) binding properties are determined in vitro by measuring the ability of said compounds to inhibit the specific binding of ^3 H-ketanserin in membrane preparations of frontal/parietal cortex from male Sprague-Dawley rats essentially as described by
# Battaglia et al. in Life Sciences 33, 2011 (1983). IC50 values, representing the concentration of compound required to displace 50% of ^3 H-ketanserin, are determined by log-logit analysis of the specific binding data. Illustrative of the invention, the compound of example 1 is effective in the serotonin-2 receptor binding assay having an […] value of about 5 nM.
# [2] = tested on: Sidman avoidance responding; experiment: Sidman avoidance model; assay type: in vivo, squirrel monkey (Samiri sciureus); details: squirrel monkeys
# Experimental: The test is carried out as follows: Adult male squirrel monkeys (Samiri sciureus, 700-1200 g) are trained to press a lever to delay by 20 sec. the delivery of a brief electrical footshock. If the animal fails to respond within a 20 sec. interval, brief (0.5 sec.) shocks (5 mA) are delivered every 20 sec. until the animal again presses the lever. The total number of avoidance responses and avoidance failures (shocks received) are recorded during the test session, which lasts 4 hours. The monkeys are tested two days per week, the first day serving as a baseline control. The test compound is administered orally in a cornstarch vehicle 10 min. prior to the start of the test session. […] An approximate dose ratio of three between avoidance blockade and induction of dyskinesias is found for the compound of example 1.
compound,measurement,setting,value
"O=C(c1ccc(F)cc1)C1CCN(CC2CSc3ccc(F)cc3C2)CC1 (centres unmarked) [Example 1, 1-[(6-Fluoro-3,4-dihydro-2H-1-benzothiopyran-3-yl)methyl]-4-piperidinyl p-fluorophenyl ketone]",EC50,[1],~5 nM
same,dose ratio between avoidance blockade and induction of dyskinesias,[2],three
